# Measured values: patent US6784208B2, “Method for preventing and treating visceral pain and gastrointestinal disorders” (Warner-Lambert Company, priority 2001, dated 2004)
# Read-outs that look alike come from different tables or passages of the source.
# Tests used:
# [1] = test system: TNBS-induced chronic visceral allodynia; assay: TNBS-induced chronic visceral allodynia in rats (colonic distension); assay type: in vivo, rat; settings: for Inhibition at 1 h (%) of the TNBS-induced decrease in the pain threshold: 1 h before colonic distension, rats
# Protocol: In this experimental model of colonic distension in awake rats, previous injection of TNBS into the proximal colon had lowered the visceral pain threshold.
# Male Sprague-Dawley rats weighing 340-400 g are used. The animals are housed 3 per cage in a regulated environment (20±1° C., 50±5% humidity, with light 8:00 am to 8:00 pm). At day 0, under anesthesia (ketamine 80 mg/kg ip.; acepromazine 12 mg/kg ip.), the injection of TNBS (50 mg/kg in ethanol 30%), or saline (1.5 ml/kg) for control rats, is performed into the proximal colon wall (1 cm from the cecum). After the surgery, animals are individually housed in polypropylene cages and kept in a regulated environment (20±1° C., 50±5% humidity, with light 8:00 a.m. to 8:00 p.m.) during 7 days. At day 7 after TNBS administration, a balloon (5-6 cm length) is inserted by anus, and kept in position (tip of balloon 5 cm from the anus) by taping the catheter to the base of the tail. Oral administration of gabapentin or the compound of formula Ia is performed 1 h before the colonic distension cycle: the balloon is progressively inflated by steps of 5 mm Hg (0.667 kPa), from 0 to 75 mm Hg, each step of inflation lasting 30 s. Each cycle of colonic distension is controlled by a standard barostat. The threshold (mm Hg) corresponds to the pressure which produced the first abdominal contraction, and the cycle of distension is then discontinued. The colonic threshold is determined after performance of four cycles of distension on the same animal.
# Data is analyzed by comparing test compound-treated groups with a TNBS only-treated group and the control group. Mean and SEM are calculated for each group. The antiallodynic activity of each oral dose of the test compound is calculated as follows: [formula]
# where A=mean threshold of the test compound-treated group,
# T=mean threshold of the TNBS only-treated group,
# C=mean threshold of the control group.
# The results measured in the test compound-treated groups are expressed in % inhibition of the TNBS-induced decrease in the pain threshold. Statistical significance between each group was determined by using a one-way ANOVA followed by Student's unpaired t-test; differences were considered statistically significant at p<0.05.
# [2] = test system: LPS-induced rectal hypersensitivity; assay: LPS-induced rectal hypersensitivity in rats (rectal distension, abdominal contractions); assay type: in vivo, rat; settings: for inhibition of the number of abdominal contractions induced by rectal distension: distension at 0.4 ml, LPS treated rats
# Protocol: Animals are surgically prepared for electromyography: rats are anaesthetized by intraperitoneal injection of acepromazine (0.6 mg/kg) and ketamine (120 mg/kg). […] Electrodes are exteriorized on the back of the neck and protected by a glass tube attached to the skin. Animals are individually housed in polypropylene cages and kept in a temperature-controlled room (21° C.). Food (UAR pellets, Epinay, France) and water are provided ad libitum.
# Electromyographic recordings begin five days after surgery. The electrical activity of abdominal striated muscles is recorded with an electroencephalograph machine (Mini VIII Alvar, Paris, France) using a short time constant (0.03 s) to remove low-frequency signals (<3 Hz) and a paper speed of 3.6 cm/min. Spike bursts are recorded as an index of abdominal contractions.
# Distension procedure: Rats are placed in plastic tunnels (6 cm diameter×25 cm long), where they cannot move, escape, or turn around, in order to prevent damage to the balloon. Animals are accustomed to this procedure for four days before rectal distension in order to minimize stress reactions during experiments. The balloon used for distension is an arterial embolectomy catheter (Fogarty, Edwards Laboratories Inc.). Rectal distension is performed by insertion of the balloon (2 mm diameter×2 cm long) into the rectum, at 1 cm from the anus, and catheter is fixed at the base of the tail. It is inflated progressively with tepid water by steps of 0.4 ml, from 0 to 1.2 ml, each step of inflation lasting 5 min. To detect possible leakage, the volume of water introduced in the balloon is checked by complete removal with a syringe at the end of the distension period.
# Experimental protocol: Rats are injected i.p. with LPS (1 mg/kg (Escherichia coli, serotype O111:B4) Sigma-Aldrich chemical Co., St Louis, Mo.) or its vehicle, and rectal distension with concomitant electromyographic recording of abdominal contractions is performed 9 and 12 h after this administration. To determine the antinociceptive properties of gabapentin and the compound of formula Ia in hyperalgesia conditions, gabapentin (10 and 30 mg/kg) and the compound of formula Ia (0.01, 0.03 and 0.1 mg/kg) or the vehicle (NaCl 0.9% 0.3 ml/rat) are administered per os 1 h before rectal distension but preceded (12 h) by injection of LPS (1 mg/kg i.p.).
# Drugs: All compounds were dissolved in sterile NaCl (0.9% isotonic saline) immediately before use.
# Statistics: Statistical analysis of the number of abdominal contractions occurring during each period of rectal distension is performed by one-way ANOVA followed by parametric Student's unpaired t test.
# [3] = test system: TNBS-induced chronic visceral allodynia; settings: cited from earlier work
compound,measurement,setting,value
1-(aminomethyl)cyclohexane acetic acid [gabapentin],Inhibition at 1 h (%) of the TNBS-induced decrease in the pain threshold,[1]; 100 mg/kg p.o.,14.7 ± 5.1%
same,Inhibition at 1 h (%) of the TNBS-induced decrease in the pain threshold,[1]; 300 mg/kg p.o.,48.6 ± 13.3%
same,Inhibition at 1 h (%) of the TNBS-induced decrease in the pain threshold,[1]; 500 mg/kg p.o.,64.9 ± 10.5%
same,Inhibition at 1 h (%) of the TNBS-induced decrease in the pain threshold,[1]; 1000 mg/kg p.o.,75.2 ± 6.1%
same,"median effective dose (ED50), antiallodynic activity","[1]; p.o., TNBS-treated rats",321 mg/kg
same,inhibition of the number of abdominal contractions induced by rectal distension,"[2]; 10 mg/kg p.o., not significant",24.9%
same,inhibition of the number of abdominal contractions induced by rectal distension,[2]; 30 mg/kg p.o.,85.3%
same,effect on TNBS-induced colonic hypersensitivity,[3]; model of chronic allodynia (Diop et al. 1998),suppress
same,effect on colonic threshold,"[3]; s.c. route, control conditions",not to modify the colonic threshold
"NC[C@]1(CC(=O)O)C[C@H]2CC[C@H]2C1 [compound of formula Ia, (1α,3α,5α)-3-aminomethyl-bicyclo[3.2.0]heptane-3-acetic acid]",Inhibition at 1 h (%) of the TNBS-induced decrease in the pain threshold,[1]; 3 mg/kg p.o.,21.7 ± 3.0%
same,Inhibition at 1 h (%) of the TNBS-induced decrease in the pain threshold,[1]; 10 mg/kg p.o.,34.2 ± 5.7%
same,Inhibition at 1 h (%) of the TNBS-induced decrease in the pain threshold,[1]; 30 mg/kg p.o.,58.8 ± 6.2%
same,Inhibition at 1 h (%) of the TNBS-induced decrease in the pain threshold,[1]; 60 mg/kg p.o.,90.4 ± 9.8%
same,ED50,"[1]; Rattus norvegicus, po, TNBS-treated rats, read-out: median effective dose (ED50), antiallodynic activity",14.4 mg/kg
same,effect on the number of abdominal contractions induced by rectal distension,"[2]; 0.01, 0.03 and 0.1 mg/kg po, distension at 0.4 ml after LPS treatment (FIG. 1)",inhibits in a dose-related manner
same,fold more potent than gabapentin,"[2]; LPS-induced rectal hypersensitivity model, p.o.",about 500 fold
same,ED50,"[2]; Rattus norvegicus, po, distension at 0.4 ml after LPS treatment, read-out: ED50, inhibition of abdominal contractions induced by rectal distension",0.037 mg/kg
CN1CC[C@]23c4c5ccc(O)c4O[C@H]2[C@@H](O)C=C[C@H]3[C@H]1C5 [morphine],effect on colonic threshold,"[3]; s.c., both TNBS-treated animals and controls",increased the colonic threshold
